Experimental data published in PMC9177618 (Structure (London, England : 1993), 2022).
Counter-ions that a name gives are not always drawn. Values belong to the compound of their own block, whether it stands above or below them.

Experiments:
[1] = target: full-length DNMT1 (Homo sapiens, UniProt P26358); assay: radioactive scintillation proximity assay; assay type: biochemical
[2] = system: Dnmt1; settings: murine pre-implantation Dnmt3a/3b knockout embryos; ref Haggerty et al., 2021; cited from earlier work
[3] = system: mouse embryonic stem cells; settings: ref Portilho et al., 2021; cited from earlier work
[4] = system: acute myeloid leukemia; settings: mouse models of acute myeloid leukemia; ref Pappalardi et al., 2021; cited from earlier work
[5] = system: more than 300 protein kinases and 30 other methyltransferases (MTases), including DNMT3a and 3b; settings: ref Pappalardi et al., 2021; cited from earlier work
[6] = system: cancer cell; settings: in vitro; ref Pappalardi et al., 2021; cited from earlier work

Sequence of full-length DNMT1 (P26358 whole entry): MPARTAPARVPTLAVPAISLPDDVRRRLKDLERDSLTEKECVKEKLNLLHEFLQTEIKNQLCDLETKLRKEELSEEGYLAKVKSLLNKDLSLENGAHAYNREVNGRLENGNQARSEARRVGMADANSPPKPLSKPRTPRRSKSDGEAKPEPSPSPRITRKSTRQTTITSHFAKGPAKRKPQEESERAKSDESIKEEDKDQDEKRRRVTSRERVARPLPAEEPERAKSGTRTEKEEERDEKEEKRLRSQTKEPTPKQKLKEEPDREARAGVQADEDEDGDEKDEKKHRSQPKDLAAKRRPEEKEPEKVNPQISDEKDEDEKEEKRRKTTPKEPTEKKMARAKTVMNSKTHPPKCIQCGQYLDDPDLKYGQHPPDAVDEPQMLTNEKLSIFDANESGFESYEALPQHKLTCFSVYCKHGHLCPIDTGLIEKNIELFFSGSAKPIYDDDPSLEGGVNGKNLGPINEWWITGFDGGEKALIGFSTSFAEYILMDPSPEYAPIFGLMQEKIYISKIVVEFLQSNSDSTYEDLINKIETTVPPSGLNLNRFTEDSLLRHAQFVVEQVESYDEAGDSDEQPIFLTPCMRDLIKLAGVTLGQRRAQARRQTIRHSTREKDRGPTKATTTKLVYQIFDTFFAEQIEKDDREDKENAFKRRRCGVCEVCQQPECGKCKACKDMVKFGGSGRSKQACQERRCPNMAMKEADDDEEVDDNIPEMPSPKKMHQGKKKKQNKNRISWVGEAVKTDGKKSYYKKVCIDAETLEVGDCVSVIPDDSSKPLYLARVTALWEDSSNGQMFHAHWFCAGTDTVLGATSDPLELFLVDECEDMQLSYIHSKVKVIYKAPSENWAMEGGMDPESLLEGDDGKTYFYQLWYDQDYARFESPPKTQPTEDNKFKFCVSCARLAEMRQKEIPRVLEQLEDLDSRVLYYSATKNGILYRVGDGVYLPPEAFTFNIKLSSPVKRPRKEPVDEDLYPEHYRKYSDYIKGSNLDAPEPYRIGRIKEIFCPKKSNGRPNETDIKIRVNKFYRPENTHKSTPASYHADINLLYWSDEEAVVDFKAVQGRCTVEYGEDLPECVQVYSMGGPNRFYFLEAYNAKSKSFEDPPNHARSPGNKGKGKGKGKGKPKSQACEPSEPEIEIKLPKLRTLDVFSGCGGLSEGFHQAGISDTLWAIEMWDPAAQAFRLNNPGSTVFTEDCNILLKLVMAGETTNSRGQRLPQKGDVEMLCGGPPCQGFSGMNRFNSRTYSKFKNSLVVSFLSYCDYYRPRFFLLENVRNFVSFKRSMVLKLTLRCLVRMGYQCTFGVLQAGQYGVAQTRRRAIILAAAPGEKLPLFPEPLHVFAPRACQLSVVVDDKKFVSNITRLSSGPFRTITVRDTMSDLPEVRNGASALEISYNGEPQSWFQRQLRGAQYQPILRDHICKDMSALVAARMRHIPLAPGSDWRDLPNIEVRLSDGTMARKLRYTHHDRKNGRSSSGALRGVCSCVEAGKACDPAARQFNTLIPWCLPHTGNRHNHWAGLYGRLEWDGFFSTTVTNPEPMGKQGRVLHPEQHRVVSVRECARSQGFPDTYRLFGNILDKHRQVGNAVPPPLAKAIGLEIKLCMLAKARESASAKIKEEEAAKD

reduced potency relative to the ~30-60 nM compounds ([1]; full-length DNMT1, 40-mer hemimethylated DNA duplex, radioactive SPA): 3-6 fold
Compound: CCc1c(C#N)c(N[C@@H](C(N)=O)c2ccccc2)nc(N2CCC(N)CC2)c1C#N [GSK3830334, (R)-2-((6-(4-aminopiperidin-1-yl)-3,5-dicyano-4-ethylpyridin-2-yl)amino)-2-phenylacetamide]

Compound: CCc1c(C#N)c(SC(C(N)=O)c2ccccc2)nc(N(C)C)c1C#N (stereo not shown) [GSK3484862]
inhibition of Dnmt1 [2]: inhibits Dnmt1
demethylation [3]: demethylation in mouse embryonic stem cells, in a level similar to that observed with Dnmt1 knockouts
non-specific toxicity [3]: minimal non-specific toxicity

IC50 [1]: 30 to 60 nM
Compound: CCc1c(C#N)c(SCc2ccc(CNC(=O)CN)cc2)nc(N2CCCN(C)CC2)c1C#N [GSK3735967, 2-amino-N-(4-(((3,5-dicyano-4-ethyl-6-(4-methyl-1,4-diazepan-1-yl)pyridin-2-yl)thio)methyl)benzyl)acetamide]

IC50 [1]: 30 to 60 nM
Compound: CCc1c(C#N)c(SC(C(N)=O)c2ccc(C(F)(F)F)cc2)nc(N2CCC(N)CC2)c1C#N (stereo not shown) [GSK3852279, 2-((6-(4-aminopiperidin-1-yl)-3,5-dicyano-4-ethylpyridin-2-yl)thio)-2-(4-(trifluoromethyl)phenyl)acetamide trifluoroacetate]

Compound: CCc1c(C#N)c(SC(C(N)=O)c2ccccc2)nc(N2CCC(N)CC2)c1C#N (stereo not shown) [GSK3685032]
tumor regression and survival compared with decitabine (Dacogen) [4]: superior to decitabine
selectivity for DNMT1 [5]: selective for DNMT1 over more than 300 protein kinases and 30 other methyltransferases
inhibition of cancer cell growth [6]: inhibits cancer cell growth

IC50 [1]: 30 to 60 nM
Compound: CCc1c(C#N)c(SC(C(N)=O)c2ccccc2)nc(N2CCCN(CCO)CC2)c1C#N (stereo not shown) [GSK3543105, 2-((3,5-dicyano-4-ethyl-6-(4-(2-hydroxyethyl)-1,4-diazepan-1-yl)pyridin-2-yl)thio)-2-phenylacetamide]
